For 1 compound, IC50, COL1A1 induction and αSMA expression results are on record in article PMC12400753 (Respiratory Research, 2025).

Holding throughout (format): cell-based
The target in one test is T1, human LPAR2 (Homo sapiens, UniProt Q9HBW0).
T1 construct: host or cells: HEK293T
The experiment in a line: LPA-induced calcium mobilization in transiently transfected HEK293T cells. Conditions: 3 h preincubation; LPA at EC80 5 µM. How it is done:
(§1) We had previously assessed selectivity against LPAR2 and 3 [11]. […] Human LPAR1-6 plasmids were each transiently transfected into HEK293T cells and the EC80 (effective concentration producing 80% maximal effect) for LPA activation empirically determined. Selectivity was then tested in a concentration response paradigm using a 3 h preincubation followed by LPA-induced calcium mobilization.
(§2) Plasmids containing human LPAR1-6 were obtained from Origene (Rockville, MD) and maxiprepped at Eton Biosciences (San Diego, CA). Transfection mix was prepared by adding Fugene 6 transfection mix to serum free media and 0.1 µg plasmid. After a 20 m incubation, HEK293T cells (ATCC, Manassas VA) were lifted with Accutase and added to the Fugene mix at a final concentration of 0.5 × 10^4 cells/well. Cells were then plated on black clear bottom 96-well plates and incubated overnight in a 37 °C, 5% CO2 incubator. […] During the last hour of incubation, media was removed and replaced with Fluo-4 NW calcium assay dye prepared as per manufacturer’s recommendations in assay buffer. Agonist plates containing LPA were prepared for individual receptor subytpes using their respective EC80. Calcium mobilization was measured as per manufacturer’s directions on a Flexstation 3 (Molecular Devices, San Jose, CA).
Background: Calcium flux is commonly read through the fluorescence of an indicator in the cells.

The next test concerns the target T2, human LPAR3 (Homo sapiens, UniProt Q9UBY5).
T2 construct: host or cells: HEK293T
T2 sequence (Q9UBY5 1-353): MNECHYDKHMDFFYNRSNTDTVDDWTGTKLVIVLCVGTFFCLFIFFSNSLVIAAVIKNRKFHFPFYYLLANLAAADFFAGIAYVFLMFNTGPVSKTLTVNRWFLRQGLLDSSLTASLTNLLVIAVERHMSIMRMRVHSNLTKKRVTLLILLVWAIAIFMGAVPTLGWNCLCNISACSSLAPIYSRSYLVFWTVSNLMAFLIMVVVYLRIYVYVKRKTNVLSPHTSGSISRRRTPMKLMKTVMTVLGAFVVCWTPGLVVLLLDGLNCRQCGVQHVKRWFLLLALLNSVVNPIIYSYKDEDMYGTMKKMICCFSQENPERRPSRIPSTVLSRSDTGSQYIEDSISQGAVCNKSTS
Described as above. Conditions: 3 h preincubation; LPA at EC80 10 µM. As for the experimental part: as §1, §2

The target in a further test is T3, human LPAR4 (Homo sapiens, UniProt Q99677).
T3 construct: host or cells: HEK293T
Described as above. Conditions: 3 h preincubation; LPA at EC80 10 µM. As for the experimental part:
as §1, §2

For another test, the target named is T4, human LPAR5 (Homo sapiens, UniProt Q9H1C0).
T4 construct: host or cells: HEK293T
Described as above. Conditions: 3 h preincubation; LPA at EC80 1 µM. As for the experimental part: as §1, §2

The target in the next test is T5, human LPAR6 (Homo sapiens, UniProt P43657).
T5 construct: host or cells: HEK293T
T5 sequence (P43657 1-344): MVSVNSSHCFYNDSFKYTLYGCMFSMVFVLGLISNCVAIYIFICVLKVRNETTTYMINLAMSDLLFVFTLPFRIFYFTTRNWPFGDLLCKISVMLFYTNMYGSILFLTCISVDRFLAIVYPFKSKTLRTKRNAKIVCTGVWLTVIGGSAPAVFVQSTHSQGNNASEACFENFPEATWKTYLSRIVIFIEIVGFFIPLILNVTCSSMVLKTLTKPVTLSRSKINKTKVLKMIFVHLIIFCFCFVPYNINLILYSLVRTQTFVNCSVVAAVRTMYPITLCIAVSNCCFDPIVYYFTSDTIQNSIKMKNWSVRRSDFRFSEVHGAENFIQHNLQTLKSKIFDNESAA
The description is as above. Conditions: 3 h preincubation; LPA at EC80 13 µM. As for the experimental part:
as §1, §2

Test [1] has as its system primary human lung fibroblasts. The experiment in a line: LPA-induced COL1A1 expression (immunocytochemistry). Conditions: 1 µM LPA 8 h; compound overnight; read-out: IC50 inhibition of COL1A1 expression. As for the experimental part: COL1A1 assay: Primary human lung fibroblasts were plated in a 96-well plate and allowed to adhere. […] The next day, cells were treated with 1 µM LPA and incubated for 8 h. After incubation in LPA, cells were immunostained for COL1A1. Cells were fixed in formalin for 10 min, washed 3 x with PBS, incubated in collagen 1A1 antibody (1:250 in blocking buffer, 0.1% Triton X-100 in PBS, 2 h), and washed 3 x with PBS. Secondary antibody solution (1:500) and Hoechst (1:2000) were added for 1 h, washed 3 x in PBS then imaged on a Nikon A1R confocal microscope at 10x magnification except human lung fibroblasts which were imaged at 4x. Collagen area was quantified with ImageJ and normalized to Hoechst per image.

Test [2] relates to primary human lung fibroblasts. Put plainly: TGFβ1- or LPA-induced myofibroblast transformation (αSMA, COL1A1). Conditions: PIPE-791 1 µM. How it is done:
TGFβ1 was used at 5 ng/mL. In addition to COL1A1 immunostaining, cells were co-immunostained with aSMA followed by a goat anti-rabbit Alexa647 secondary antibody.

One may read the IC50 as the concentration that inhibits the measured activity by half.

SMILES strings stand for the structures.

T4 sequence (Q9H1C0 whole entry): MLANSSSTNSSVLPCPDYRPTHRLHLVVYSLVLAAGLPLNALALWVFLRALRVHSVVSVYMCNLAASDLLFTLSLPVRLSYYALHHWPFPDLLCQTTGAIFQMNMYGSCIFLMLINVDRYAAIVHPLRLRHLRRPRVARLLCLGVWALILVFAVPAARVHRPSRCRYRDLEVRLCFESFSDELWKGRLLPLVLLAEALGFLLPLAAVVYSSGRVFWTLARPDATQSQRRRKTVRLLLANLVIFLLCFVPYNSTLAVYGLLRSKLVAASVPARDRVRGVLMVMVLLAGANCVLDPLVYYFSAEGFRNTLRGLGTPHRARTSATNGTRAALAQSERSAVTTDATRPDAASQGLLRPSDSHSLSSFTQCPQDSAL
T1 sequence (Q9HBW0 whole entry): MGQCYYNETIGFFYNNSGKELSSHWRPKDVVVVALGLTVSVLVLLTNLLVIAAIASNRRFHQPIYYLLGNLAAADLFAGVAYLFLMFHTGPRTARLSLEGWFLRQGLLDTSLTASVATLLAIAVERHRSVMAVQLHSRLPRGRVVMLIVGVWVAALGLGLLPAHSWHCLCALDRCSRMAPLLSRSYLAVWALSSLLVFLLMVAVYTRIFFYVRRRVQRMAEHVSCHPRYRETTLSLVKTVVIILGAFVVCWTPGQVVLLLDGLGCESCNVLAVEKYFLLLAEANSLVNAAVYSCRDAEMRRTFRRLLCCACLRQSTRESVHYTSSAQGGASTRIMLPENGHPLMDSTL
T3 sequence (Q99677 whole entry): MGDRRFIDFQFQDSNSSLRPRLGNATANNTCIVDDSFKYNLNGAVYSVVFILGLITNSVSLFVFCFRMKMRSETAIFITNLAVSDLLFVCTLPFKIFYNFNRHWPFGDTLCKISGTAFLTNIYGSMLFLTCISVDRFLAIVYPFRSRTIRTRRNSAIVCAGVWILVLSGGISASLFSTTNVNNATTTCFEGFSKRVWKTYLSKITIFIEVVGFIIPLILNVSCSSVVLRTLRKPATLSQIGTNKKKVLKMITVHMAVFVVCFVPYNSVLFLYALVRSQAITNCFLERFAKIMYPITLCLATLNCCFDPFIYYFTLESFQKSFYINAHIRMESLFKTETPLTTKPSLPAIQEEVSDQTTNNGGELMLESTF

Take `COc1ccc(NC(=O)N(c2ccccc2C(C)C)C2CCC(C(=O)O)CC2)c(OC(F)F)n1` (stereo not shown) [PIPE-791]: the 50% inhibitory concentration (IC50) came out at 0.463 µM on human LPAR2; 0.398 µM on human LPAR3; 0.607 µM on human LPAR4; 0.114 µM at human LPAR5; 0.805 µM on human LPAR6; 0.0011 µM in test [1]. Further, the COL1A1 induction entry in test [2] (LPA stimulation) and in test [2] (TGFβ1 stimulation) was “significantly inhibited” each time. For the same compound, the αSMA expression entry in test [2] (LPA stimulation) and in test [2] (TGFβ1 stimulation) was “significantly inhibited” each time.
